“Also recorded” adds a separate entry of the source.

The values that follow come from patent publication US20210040151A1, “MICROMOLECULE POLYPEPTIDE AND USE THEREOF” (NANFANG HOSPITAL OF SOUTHERN MEDICAL UNIVERSITY, priority 2019, published 2021).

Assay [1] concerns UUO mice. Put plainly: Kidney fibrosis in UUO (unilateral ureter ligation) mouse model: sirus scarlet staining, fibronectin immunostaining, western blot. It is filed as in vivo, BALB/C mice. As for the experimental part:
(§1) BALB/C mice, male and female, a weight ranging from 20 g to 22 g, and a SPF grade.
(§2) The animals were weighed and numbered. 18 healthy mice with a weight ranging from 20 g to 22 g were selected and randomly divided into 3 groups, with 6 mice in each group, including a sham operation group, a model group and an administration group.
(§3) 1) Sham operation group: at a room temperature, after mice were anaesthetized with 3% pentobarbital sodium at 1 ml/kg body weight, a left abdomen part of 2 cm to 3 cm was selected as an incision; and skin, a subcutaneous layer, a muscular layer and a peritoneum were cut layer by layer after local disinfection, and then were sutured layer by layer immediately after finding a left ureter. After local disinfection, the mice were verified and marked, and then placed in a corresponding mouse cage.
(§4) 2) Model control group: anesthetization and disinfection were performed same as the sham operation group. Skin, a subcutaneous layer, a muscular layer and a peritoneum were cut layer by layer, and then were sutured layer by layer after finding a left ureter and performing a ligation at an upper ⅓ segment of the ureter. After local disinfection, the mice were verified and marked, and then placed in a corresponding mouse cage.
(§5) 3) Administration group: anesthetization and disinfection were performed same as sham operation group. Skin, a subcutaneous layer, a muscular layer and a peritoneum were cut layer by layer, and then were sutured layer by layer after finding a left ureter and performing a ligation at an upper ⅓ segment of the ureter. After local disinfection, the mice were verified and marked, and then placed in a corresponding mouse cage.
KP-6T or KP-6 water soluble powder was diluted with sterile 0.01 Mol glacial acetic acid solution to a storage concentration of 10 mg/ml. The mice of each experimental group were raised in different cages. The sham operation group was only observed. The model control group was only given 0.01 Mol glacial acetic acid solution by tail vein injection. The administration group was given glacial acetic acid solution containing KP-6T or KP-6 of 0.5 mg/kg of body weight by tail vein injection on the 1st or 5th day after UUO operation for 6 consecutive days. The mice in each group were euthanized after 7 days or 11 days of raising, left kidneys were taken, and then tissues were respectively fixed with 10% neutral formaldehyde and frozen with liquid nitrogen. The formaldehyde-fixed tissues were dehydrated, embedded, sliced and flaked, and then subjected to sirus scarlet staining and fibronectin immumohistochemical staining respectively. A protein was extracted after homogenization of the frozen tissues, and a fibrosis index, and expression levels of an active-β-catenin and a target gene thereof were detected by western blot.
1) A degree of kidney tissue fibrosis was detected by sirus scarlet staining.
For orientation: Immunoblotting shows a protein as a band on a membrane.

Assay [2] has as its system β-catenin signal pathway. Put plainly: β-catenin signal pathway in kidney tissue of UUO mice: western blot, mRNA of target genes. It is filed as in vivo, BALB/C mice. As for the experimental part:
as §1, §2, §3, §4, §5
KP-6T or KP-6 water soluble powder was diluted with sterile 0.01 Mol glacial acetic acid solution to a storage concentration of 10 mg/ml. The mice of each experimental group were raised in different cages. […] A protein was extracted after homogenization of the frozen tissues, and a fibrosis index, and expression levels of an active-β-catenin and a target gene thereof were detected by western blot.

Setting [3] is: UUO mice, 0.5 mg/kg tail vein injection for 6 days from 1st or 5th day after UUO, vs model control group (FIG. 2 and FIG. 5).
The mark [4] stands for this setting: advanced UUO mouse, administration from 5th day after UUO, 0.5 mg/kg tail vein, vs model group (FIG. 7).
The mark [5] stands for this setting: advanced UUO mouse, administration from 5th day after UUO, 0.5 mg/kg tail vein, vs model group (FIG. 7), 0.5 mg/kg.
Where [6] appears, read: UUO mice, 0.5 mg/kg tail vein injection for 6 days from 1st or 5th day after UUO, vs model control group (FIG. 3 and FIG. 6).

For “LQDAYGGWANR (Synthesized by Nanjing Genscript Biotechnology Co. Ltd.) [KP-6T]”, the “collagen deposition in renal interstitium (sirus scarlet staining)” value in assay [1] (UUO mice, 0.5 mg/kg tail vein injection for 6 consecutive days from 1st or 5th day after UUO, vs model control group (FIG. 1 and FIG. 4)) is “significantly lower”. Further, in assay [1] (setting [3]), the “level of fibronectin in kidneys” value was “significantly reduced” and the “level of smooth muscle actin α (α-SMA) in kidneys” value is “significantly reduced”. Moreover, the “collagen deposition in the renal interstitium” value in assay [1] (administered the 5th day after UUO) is listed as “significantly inhibit”. Further, in assay [1] (setting [4]), the “deposition of extracellular matrix in renal interstitium” value is listed as “significantly reduced” and the “protein Klotho expressed by healthy kidney tubular epithelial cells” value is recorded as “recovered”. In assay [1] (setting [5]), the “level of fibronectin in kidneys” value is “significantly reduced; also recorded: significantly inhibit” and the “level of smooth muscle actin α (α-SMA) in kidneys” value was “significantly reduced; also recorded: significantly inhibit”. Moreover, in assay [2] (setting [6]), the “expression level of downstream target gene of β-catenin (PAI-1, Snail-1, MMP7 mRNA) in kidneys” value was “significantly reduced” and the “expression level of β-catenin protein in kidneys” value is on record as “significantly reduced”. Further, the “Wnt signal pathway (active-β-catenin)” value in assay [2] (setting [4]) is recorded as “inhibited”.
